The text below walks through data of patent publication US9034403B2, “Yeast extract containing γ-Glu-X or γ-Glu-X-Gly and a method for producing the same” (AJINOMOTO CO., INC., priority 2010, dated 2015).

Assay [1] relates to Saccharomyces cerevisiae S288C strain. Kind of assay: Addition of peptide to medium of S288C strain; peptide content in dry cells and in extract by LC-MS/MS. Format: cell-based. The protocol:
Absorbance of the obtained culture broth was measured, the culture broth was inoculated into SD medium (400 ml in a 2 L-volume conical flask with baffle fins, a pluratity of flasks) so that OD660 was 0.01 at the start of the culture (absorbance was measured by using DU640 SPECTROPHTOMETER, BECKMAN COULTER), and culture was performed at 30° C. for 19 hours with shaking by rotation at a velocity of 120 rpm. From the obtained culture broth, 400 OD units of the cells (1 OD unit is defined as cells contained in 1 ml of culture broth of which OD660 is 1) were collected by centrifugal separation. The supernatant was removed as much as possible, and the residual cells were suspended in 45 ml of Milli-Q water. The cells were collected again by centrifugal separation, and resuspended in 45 ml of Milli-Q water. By repeating this operation 3 times in total, the medium was completely removed from the cells. The washed cells were suspended in about 1.5 ml of Milli-Q water, and the suspension was heated at 70° C. for 10 minutes. By this step, the extractable components contained in the cells were extracted. Then, the extract and the cell residue were separated by centrifugation.
Cell debris were removed from the extract using a centrifugal filtration membrane of 10 kDa (Amicon Ultra—0.5 mL 10K, MILLIPORE, Catalogue Number UFC501096)), the obtained fraction was derivatized with the AQC reagent in the same manner as that used in Example 1, and γ-Glu-Val-Gly and γ-Glu-Val were measured by LC-MS/MS. Separately, the amount of GSH in the cells was measured in a conventional manner (GSH in the extract was derivatized by using a fluorescence reagent ABD-F that binds to thiol group, separated and quantified by HPLC). Furthermore, dry cell weight was measured after the washed cells were dried at 104° C. for 4 hours. From the amounts of γ-Glu-Val-Gly and γ-Glu-Val in the extract prepared from the cells that was contained in a certain volume of culture broth and dry cell weight measured as described above, the amount of these peptides based on weight of dried cells was calculated. […]
One loop of the S288C strain was inoculated into SD medium (50 ml in a 500 ml-volume Sakaguchi flask), and cultured at 30° C. for 24 hours with shaking at a velocity of 120 rpm. Absorbance of the obtained culture broth was measured, the culture broth was inoculated into SD medium (400 ml in a 2 L-volume conical flask with baffle fins, two or more flasks) so that OD660 was 0.01 at the start of the culture, and culture was performed at 30° C. for 19 hours with shaking by rotation at a velocity of 120 rpm. After 19 hours, γ-Glu-Val-Gly aqueous solutions of various concentrations were added to obtain predetermined concentrations, and the culture was continued for 1 hour. Using these culture broths, the γ-Glu-Val-Gly content in dry cells was calculated in the same manner as in Example 2. Furthermore, the solid content of the extract was calculated, and the amount of γ-Glu-Val-Gly in the solid content was also calculated. […]
The cells were collected from the total culture broth, and washed in the same manner as that of Example 2. The washed cells in an amount of 400 OD units were suspended in 1.5 ml of Milli-Q water. This suspension was maintained at 70° C. for 10 minutes to produce an extract from the yeast cells. Furthermore, the suspension was centrifuged to remove the cell residues and thereby collect only the extract. The γ-Glu-Val-Gly concentration of this extract (extract of addition experiment) was measured to be about 300 ppm, and solid content was about 1%. The γ-Glu-Val-Gly concentration in an extract prepared in the same way but without adding γ-Glu-Val-Gly to the culture broth (extract of no addition experiment) was below the quantitation limit, and solid content was about 1%.
One loop of the S288C strain was inoculated into SD medium (50 ml in a 500 ml-volume Sakaguchi flask), and cultured at 30° C. for 24 hours with shaking at a velocity of 120 rpm. […]

The test system of assay [2] is S288C and HGT1 or PTR2 modified strains (Hgt1p, Ptr2p). Kind of assay: Evaluation of γ-Glu-Val-Gly uptake activity of HGT1 or PTR2 modified strains. Format: cell-based, Saccharomyces cerevisiae. The following applies: 100 ppm γ-Glu-Val-Gly in SD medium, 7 hours. The protocol:
The influence of Hgt1p, which has been considered to be a GSH specific transporter, and Ptr2p, which is a peptide transporter, on γ-Glu-Val-Gly accumulation was evaluated as follows.
Each strain was cultivated in 50-ml tubes containing 5 ml of SD medium with 100 ppm γ-Glu-Val-Gly as a final concentration. Tubes were inoculated by overnight culture of the corresponding strain at initial OD600=0.5, and placed in a rotation shaker at 240 rpm, 30° C. The cultivation time was 7 hours. Then, cells from 2 ml of broth culture were harvested by centrifugation, and were washed with 1 ml of milliQ water three times. Then, washed cells were suspended in 1 ml of milliQ and were incubated at 70° C. for 10 min with a water bath to extract intracellular materials. After cell debris and the extract were separated by centrifugation, the aqueous phase was transferred to a clean vial and the vial was then vacuum-dried. Thus, a dried extract was prepared. Then, the amount of γ-Glu-Val-Gly in the dried extract was measured with LC-MS/MS analysis. The detailed procedures are described below.
1. Sample was dissolved in 100 μl of water, and then 100 μl of acetonitrile (MeCN) was added, and then centrifuged.
2. 190 μl of supernatant was transferred to a new tube and dried.
3. Pellet was dissolved in 40 μl of water.
4. For derivatization, 20 μl of the obtained solution was mixed with 60 μl of buffer and 80 μl of derivatization reagent, and incubated at 55° C. for 10 min.
5. After incubation, 200 μl of 0.1% solution of HCOOH in water was added to stop AQC derivatization reaction.
40 μl of the resultingsolution was taken for HPLC, and γ-Glu-Val-Gly in the elutants was analyzed with MS/MS detector.
It was shown that the HGT1 gene is essential to transport γ-Glu-Val-Gly from the medium, but PTR2 is not.

Where [3] appears, read: 0.01 ppm γ-Glu-Val-Gly added to medium after 19 hours, culture continued 1 hour.
The mark [4] stands for this setting: 0.1 ppm γ-Glu-Val-Gly added to medium after 19 hours, culture continued 1 hour.
[5] abbreviates: 1 ppm γ-Glu-Val-Gly added to medium after 19 hours, culture continued 1 hour.
The mark [6] stands for this setting: 5 ppm γ-Glu-Val-Gly added to medium after 19 hours, culture continued 1 hour.
Setting [7] is: 10 ppm γ-Glu-Val-Gly added to medium after 19 hours, culture continued 1 hour.
The mark [8] stands for this setting: 100 ppm γ-Glu-Val-Gly added to medium after 19 hours, culture continued 1 hour.

Structures are written as SMILES.

Consider `CC(C)[C@H](NC(=O)CC[C@H](N)C(=O)O)C(=O)NCC(=O)O` [γ-Glu-Val-Gly], for which the “γ-Glu-Val-Gly content in dry cells” value in assay [1] (setting [3]) amounted to 5 ppm; in assay [1] (setting [4]), 28 ppm; in assay [1] (setting [5]) it was 363 ppm; in assay [1] (setting [6]), 2647 ppm; in assay [1] (setting [7]), 5341 ppm; in assay [1] (setting [8]), 10191 ppm. Besides, the “γ-Glu-Val-Gly content in dry cells” value in assay [1] (γ-Glu-Val-Gly 100 ppm added to SD medium in advance, culture 16 hours) is listed as “about 20,000 ppm”. Further, the “γ-Glu-Val-Gly content in solid content of extract” value in assay [1] (setting [3]) is listed as 21 ppm; in assay [1] (setting [4]), 96 ppm; in assay [1] (setting [5]) it was 1110 ppm; in assay [1] (setting [6]), 10119 ppm; in assay [1] (setting [7]) it was 17408 ppm; in assay [1] (setting [8]) it was 32183 ppm. Besides, the “γ-Glu-Val-Gly concentration of extract” value in assay [1] (50 ppm γ-Glu-Val-Gly added after 19 hours, culture continued 1 hour, 400 OD units in 1.5 ml, solid content about 1%) is “about 300 ppm”. Further, the “intracellular γ-Glu-Val-Gly” value in assay [2] (Table 13, strain S288C hgt1Δ ptr2Δ) amounted to 0.01 mg 1^−1 OD600^−1; in assay [2] (Table 13, strain S288C hgt1Δ), 0.01 mg 1^−1 OD600^−1; in assay [2] (Table 13, strain S288C ptr2Δ) it was 1.84 mg 1^−1 OD600^−1; in assay [2] (Table 13, strain S288C), 1.93 mg 1^−1 OD600^−1; in assay [2] (Table 14, strain S288C PADH1-HGT1), 28.6 mg 1^−1 OD600^−1; in assay [2] (Table 14, strain S288C PADH1-PTR2) it was 2.6 mg 1^−1 OD600^−1. For the same molecule, the “intracellular γ-Glu-Val-Gly” value in assay [2] (Table 14, strain S288C) was found to be 3.3 mg 1^−1 OD600^−1.
